# According to US10005733B2, “N-(4-hydroxy-4-methyl-cyclohexyl)-4-phenyl-benzenesulfonamide and N-(4-hydroxy-4-methyl-cyclohexyl)-4-(2-pyridyl)-benzenesulfonamide compounds and their therapeutic use” (PIMCO 2664 LIMITED, priority 2014, dated 2018):
# Where two headings read alike, the source gives them in different places.
# Legend:
# [1] = Rodent Pharmacokinetics Studies; type: in vivo, rat; conditions: for bioavailability / half-life: rat, plasma; for bioavailability: read-out: Bioavail, F (%)
# Experimental: Absorption and metabolic stability were studied using an in vivo pharmacokinetics assay.
# […] […] For compound HMC-C-01-A the oral administration was formulated in 2% dimethylacetamide/20% hydroxypropyl-β-cyclodextrin in water. Animals were given free access to food throughout the study except for fasting overnight and until 2 hours post dose on the day of dosing.
# Blood samples were taken from the retro-orbital plexus at the following time points and placed in microtubes containing 20% K2EDTA solution: […]
# Blood samples were centrifuged to obtain plasma, which was transferred to a separate container and frozen at −20° C.
# For analysis, samples were thawed at room temperature and prepared by protein precipitation with acetonitrile spiked with internal standard (500 ng/mL glipizide) in the ratio 1:4 with plasma. The samples were then vortexed for 5 minutes and centrifuged for 10 minutes at 20,600×g at 4° C. 100 μL of the supernatant was collected for analysis.
# The pharmacokinetic parameters for the test compounds were calculated by Phoenix WinNonlin version 6.3 (Pharsight Corp, CA) using standard non-compartmental methods. Peak plasma concentrations (Cmax) and time of the peak plasma concentration (Tmax) were the observed values. The area under the plasma concentration-time curve (AUC) was determined by use of the linear trapezoidal rule up to the last measurable concentration (AUClast) and thereafter by extrapolation of the terminal elimination phase to infinity (AUCinf). The terminal elimination rate constant (kel) was determined by regression analysis of the linear terminal portion of the log plasma concentration-time curve. The elimination phase half-life (t1/2) was calculated as 0.693/kel.
# [2] = test system: DoHH2 B-cell lymphoma cells; assay: DoHH2 B Cell Lymphoma Proliferation Assay; type: cell-based; conditions: Homo sapiens, DOHH-2; 72 hour incubation, flow cytometry with counting beads and eFluor 450
# Experimental: In vitro potency of test compounds was determined by incubation with DoHH2 B-cell lymphoma cells and subsequent determination of cell number using flow cytometry.
# Flow cytometry is a laser-based, biophysical technology employed in cell counting, cell sorting, and biomarker detection, by suspending cells in a stream of fluid and passing them by an electronic detection apparatus. It allows simultaneous multi-parametric analysis of the physical and chemical characteristics of up to thousands of particles per second. To quantify cell numbers, counting beads are used as an internal standard. Counting beads are a calibrated suspension of microbeads which are added to a known volume of sample so the sample volume per bead is known. This allows the absolute determination of cell number in a sample. Cell proliferation is measured using a dye known as Cell Proliferation Dye (eFluor® 450). eFluor® 450 is an organic dye which can be conjugated to cell-specific markers. […]
# The average results for each test compound were expressed as a percent (%) of the average control value reflecting cell viability. The average values across the concentrations tested were then plotted and an IC50 was calculated by fitting the data to a 4-parameter IC50 equation using KaleidaGraph software (Synergy Software, Reading, Pa. USA).
# [3] = test system: human primary osteoclasts; assay: Human Primary Osteoclastogenesis (TRAP-positive multinucleated cells from CD14+ monocytes); type: cell-based; conditions: compound added on Day 4 of monocyte differentiation; for IC50: Homo sapiens, Osteoclast, 96 h
# Experimental: In vitro potency of test compounds was determined by incubating them with human primary monocytes and assessing effects on the formation of mature osteoclasts.
# The activity of the compounds in reducing the formation of human primary osteoclasts (osteoclastogenesis) was tested using monocytes derived from human whole blood. Monocytes, which are positive for the cell surface marker CD14, are part of the innate immune system found in the circulation. Peripheral blood monocytes differentiate to form several cell types, including osteoclasts. Human primary osteoclasts were […] macrophage colony-stimulating factor (M-CSF) and RANKL+10% foetal calf serum for approximately 6 days, with the exact duration depending on the individual donor of the cells.
# When monocytes are cultured under the conditions described above, they form large, multinucleated cells (osteoclasts), which stain positively for tartrate-resistant acid phosphatase (TRAP). TRAP staining was performed between Days 5-6 of culture depending on the individual donor. Osteoclasts are identified as cells which stain positive for TRAP and contain more than 3 nuclei. Compounds which reduce the number of TRAP-positive cells reduce the formation of osteoclasts. The bisphosphonate compound, alendronate, which is used in the treatment of osteoporosis, is used as a positive control for reducing osteoclastogenesis in this assay.
# Effects on osteoclast formation were assessed by staining for TRAP and counting cells containing more than three nuclei in each well under a microscope. This allows the absolute determination of cell number in each treated well.
# PBMCs (peripheral blood mononuclear cells) were collected from healthy donors and isolated by centrifugation on a layer of Ficoll Paque (GE Healthcare, UK). Monocytes were then sorted from the PBMCs using an autoMACS Pro Separator (MiltenyiBiotec), which sorts cells depending on the markers present on their cell surface. The resulting CD14+ monocytes were resuspended in αMEM supplemented with 10% FCS, 25 ng/mL M-CSF and 100 ng/ml RANKL and added to a 48-well plate, which was then incubated for up to 6 days at 37° C./5% CO2. […] The medium was replenished every 2 days.
# At the end of the culture period, the medium was removed from the cells and the cells were fixed at room temperature and then washed with phosphate-buffered saline. TRAP staining solution was then added and the cells incubated at 37° C. until a red colour had developed, after which the reaction was stopped by rinsing with water. The stained cells were air-dried and then photographed using a conventional microscope and the TRAP-positive multinucleated osteoclasts counted by two independent observers.
# The average results (n=6) for each concentration of test compound were averaged between the two observers and then expressed as a fold change versus the average control value. The data were then plotted graphically using software from Grafit (Erithacus Software).
# [4] = male Han Wistar rats, 1 mg/kg intravenous, 5% DMSO/10% solutol in saline
# [5] = male Han Wistar rats, 5 mg/kg orally, 0.5% CMC/0.1% Tween-80
# [6] = 5 mg/kg, male Han Wistar rats, oral in 0.5% CMC/0.1% Tween-80, i.v. in 5% DMSO/10% solutol in saline
Structure (SMILES),"i.v. AUC [1, 4]","p.o. AUC (ng/mL/min) [1, 5]","bioavailability [1, 6]",IC50 [2],% reduction at 1 μM [3],IC50 [3],also measured
"C[C@]1(O)CC[C@H](NS(=O)(=O)c2ccc(-c3ncc(Cl)cc3C#N)cc2)CC1 [HMC-N-05-A, 4-(5-Chloro-3-cyanopyridin-2-yl)-N-((1r,4r)-4-hydroxy-4-methylcyclohexyl)benzenesulfonamide]",–,–,–,–,–,–,"bioavailability ([1]; male, Han Wistar, 5 mg/kg, rats, footnote (1): 5% DMSO/10% solutol in saline for both oral and intravenous routes): 88%; half-life ([1]; male, Han Wistar, rats, footnote (1): 5% DMSO/10% solutol in saline for both routes): 48 min; i.v. AUC ([1]; rats, 1 mg/kg i.v., footnote (1): 5% DMSO/10% solutol in saline): 891 ng/mL/min; p.o. AUC ([1]; rats, 5 mg/kg orally, footnote (1): 5% DMSO/10% solutol in saline): 3937 ng/mL/min"
"C[C@]1(O)CC[C@@H](NS(=O)(=O)c2ccc(-c3ccc(F)cc3F)cc2)CC1 [ABD899, reference compound]",2133 ng/mL/min,10740 ^(4) ng/mL/min,50%,135 nM,–,–,–
"Cc1cc(S(=O)(=O)N[C@H]2CC[C@H](O)CC2)ccc1-c1ccc(F)cc1F [ABD735, reference compound]",1081 ng/mL/min,8965 ^(4) ng/mL/min,83%,–,–,–,–
"C[C@]1(O)CC[C@@H](NS(=O)(=O)c2ccc(-c3ccc(C#N)cc3)c(F)c2)CC1 [HMC-C-07-B, 4′-Cyano-2-fluoro-N-((1s,4s)-4-hydroxy-4-methylcyclohexyl)-[1,1′-biphenyl]-4-sulfonamide]",–,–,–,186 nM,90%,120 nM,"bioavailability ([1]; male, Han Wistar, iv, 5 mg/kg, rats, footnote (3): i.v. samples at 0.03, 0.1, 0.167, 0.25, 0.5, 1, 2, 4, 6, 8, 24 hours): 86%; half-life ([1]; male, Han Wistar, rats, footnotes (1)(2): 5% DMSO/10% solutol in saline for both routes): 582 min; half-life ([1]; male, Han Wistar, rats, study of footnote (3)): 540 min; bioavailability ([1]; male, Han Wistar, rats, footnotes (1)(2): 5% DMSO/10% solutol in saline for both routes, sampling incl. 23 and 24 hours, oral 10 mg/kg): 100%; i.v. AUC ([1]; rats, 1 mg/kg i.v., footnote (3): i.v. samples at 0.03, 0.1, 0.167, 0.25, 0.5, 1, 2, 4, 6, 8, 24 hours): 11627 ng/mL/min; p.o. AUC ([1]; rats, 5 mg/kg orally, study of footnote (3)): 39463 ng/mL/min; p.o. AUC (ng/mL/min) ([1]; rats, footnotes (1)(2)(5): dosed at 10 mg/kg orally in 5% DMSO/10% solutol in saline): 146299 ^(5) ng/mL/min; i.v. AUC ([1]; rats, footnotes (1)(2): 1 mg/kg i.v. in 5% DMSO/10% solutol in saline, sampling incl. 23 and 24 hours): 24072 ng/mL/min"
C[C@]1(O)CC[C@H](NS(=O)(=O)c2ccc(-c3ccc(F)cc3F)cc2)CC1 [ABD900],–,–,–,–,90%,370 nM,–
